Source: US20240294551A1 (AMGEN INC., priority 2022, published 2024)
pIC50: −log10 of the molar value.

How the values were obtained:
[1] = molecular target: His-tagged KRAS G12D protein (Homo sapiens (Human), UniProt P01116, G12D); experiment: KRAS G12D TR-FRET Assay; format: binding; details: read-out: KRAS G12D Binding IC50
Summary of the method: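 Each incubation ran at room temperature: enzyme with compound for 30 minutes, peptide for one hour, and detection reagents (0.4 nM europium anti-6×His, 5 nM streptavidin-d2) for one hour more. Protein and peptide stocks were each diluted to 20 nM before addition.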

[2] = molecular target: GDP-bound KRAS protein (aa 1-169), containing both G12D and C118A amino acid substitutions (Homo sapiens (Human), UniProt P01116, C118A/G12D); experiment: KRAS G12D Coupled Nucleotide Exchange Assay; format: biochemical; details: read-out: KRAS G12D Coupled Exchange IC50
Chain of GDP-bound KRAS protein (aa 1-169), containing both G12D and C118A amino acid substitutions (P01116 other isoform, or with tags, fused parts or gaps G12D/C118A): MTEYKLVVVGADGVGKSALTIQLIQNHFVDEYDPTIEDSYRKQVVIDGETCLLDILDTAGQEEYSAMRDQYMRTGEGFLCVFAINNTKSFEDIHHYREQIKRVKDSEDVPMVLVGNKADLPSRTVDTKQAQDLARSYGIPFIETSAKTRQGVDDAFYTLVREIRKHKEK

[3] = tested on: Phosphorylation of ERK1/2 in AsPC-1 cells; experiment: Phospho-ERK1/2 MSD Assay; format: cell-based, human; details: Homo sapiens, ASPC1, 2 h, read-out: 2 h p-ERK (AsPC-1 cells), IC50
Protocol: AsPC-1 (ATCC® CRL-1682™) cells were cultured in RPMI 1640 Medium (ThermoFisher Scientific 11875093) containing 10% fetal bovine serum (ThermoFisher Scientific 16000044) and 1× penicillin-streptomycin-glutamine (ThermoFisher Scientific 10378016). Sixteen hours prior to compound treatment, AsPC-1 cells were seeded in 96-well cell culture plates at a density of 25,000 cells/well and incubated at 37° C., 5% CO2. A compound dose-response titration was diluted in growth media, added to appropriate wells of a cell culture plate, and then incubated at 37° C., 5% CO2 for 2 hours. Following compound treatment, cells were washed with ice-cold Dulbecco's phosphate-buffered saline, no Ca^2+ or Mg^2+ (ThermoFisher Scientific 14190144), and then lysed in RIPA buffer (50 mM Tris-HCl pH 7.5, 1% Igepal, 0.5% sodium deoxycholate, 150 mM NaCl, and 0.5% sodium dodecyl sulfate) containing protease inhibitors (Roche 4693132001) and phosphatase inhibitors (Roche 4906837001). Phosphorylation of ERK1/2 in compound-treated lysates was assayed using Phospho-ERK1/2 Whole Cell Lysate kits (Meso Scale Discovery K151DWD) according to the manufacturer's protocol. Assay plates were read on a Meso Scale Discovery Sector Imager 6000, and data were analyzed using a 4-parameter logistic model to calculate IC50 values.

Chain of His-tagged KRAS G12D protein (P01116 other isoform, or with tags, fused parts or gaps G12D): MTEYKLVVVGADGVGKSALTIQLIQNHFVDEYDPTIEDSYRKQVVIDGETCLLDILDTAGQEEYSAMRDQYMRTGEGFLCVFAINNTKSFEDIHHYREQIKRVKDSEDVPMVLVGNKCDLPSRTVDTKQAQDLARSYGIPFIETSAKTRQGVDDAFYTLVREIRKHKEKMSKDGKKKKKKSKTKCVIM

Row | pIC50 [1] | pIC50 [2] | pIC50 [3] | SMILES | IC50 [2] [µM]
1 | 7.82 | 7.92 | 6.97 | Cc1cc2[nH]ncc2c2c1C[C@H](C)COC(=O)O[C@@H]1CCCN(C1)c1nc(OC[C@@]34CCCN3C[C@H](F)C4)nc3c(F)c-2ncc13 (single isomer, unassigned) [Example 215] | 
2 | 5.87 | 6.30 | 6.08 | O=C1OCCCc2c(Cl)cc3[nH]ncc3c2-c2ncc3c(nc(OC[C@@]45CCCN4C[C@H](F)C5)nc3c2F)N2CCCC[C@@](CF)(C2)O1 [Example 339, (26S)-18-chloro-32-fluoro-26-(fluoromethyl)-4-(((2R,7aS)-2-fluorotetrahydro-1H-pyrrolo[1,2-a]pyrrol-7a(5H)-yl)methoxy)-23,25-dioxa-1,3,5,9,14,15-hexaazahexacyclo[24.4.1.1~6,10~.0~2,7~.0~11,19~.0~12,16~]dotriaconta-2,4,6,8,10(32),11,13,16,18-nonaen-24-one] | 
3 | 8.10 | 8.40 | 6.62 | O=C1OCCc2c(F)ccc3cccc(c23)-c2ncc3c(nc(OC[C@@]45CCCN4C[C@H](F)C5)nc3c2F)N2CCOC[C@H](C2)O1 [Example 371] | 
4 | 7.72 | 7.92 | 6.39 | Cc1cc2[nH]ncc2c2c1CCC[C@@H](F)C(=O)N(C)[C@@H]1CCCN(C1)c1nc(OC[C@@]34CCCN3C[C@H](F)C4)nc3c(F)c-2ncc13 [Example 52, (14R,17R)-14,30-difluoro-24-(((2R,7aS)-2-fluorotetrahydro-1H-pyrrolo[1,2-a]pyrrol-7a(5H)-yl)methoxy)-9,16-dimethyl-5,6,16,21,23,25,29-heptaazahexacyclo[24.3.1.1~17,21~.0~2,10~.0~3,7~.0~22,27~]hentriaconta-1(30),2,4,7,9,22,24,26,28-nonaen-15-one] | 
5 | 8.15 | 8.40 | 6.77 | Cc1cc2[nH]ncc2c2c1CCCCC(=O)N(C)[C@@H]1CCCN(C1)c1nc(OC[C@@]34CCCN3C[C@H](F)C4)nc3c(F)c-2ncc13 [Example 50, (17R)-30-fluoro-24-(((2R,7aS)-2-fluorotetrahydro-1H-pyrrolo[1,2-a]pyrrol-7a(5H)-yl)methoxy)-9,16-dimethyl-5,6,16,21,23,25,29-heptaazahexacyclo[24.3.1.1~17,21~.0~2,10~.0~3,7~.0~22,27~]hentriaconta-1(30),2,4,7,9,22,24,26,28-nonaen-15-one] | 
6 | 7.51 | 7.74 | 5.87 | Fc1c2ncc3c(nc(OC[C@@]45CCCN4C[C@H](F)C5)nc13)N1CCCC(Cc3ncn(n3)CCc3c(Cl)cc4[nH]ncc4c3-2)C1 (stereo partly drawn) [Example 232] | 
7 | 7.72 | 7.96 | 5.80 | O=C1CC2CCCN(C2)c2nc(OC[C@@]34CCCN3C[C@H](F)C4)nc3c(F)c(ncc23)-c2cccc3cccc(c23)CCO1 (stereo partly drawn) [Example 88] | 
8 | 7.48 | 7.77 | 6.51 | Fc1c2ncc3c(nc(OC[C@@]45CCCN4C[C@H](F)C5)nc13)N1CCO[C@@H](COCC(F)(F)CCc3c(Cl)cc4[nH]ncc4c3-2)C1 [Example 150, (17R)-9-Chloro-13,13,30-trifluoro-24-(((2R,7aS)-2-fluorotetrahydro-1H-pyrrolo[1,2-a]pyrrol-7a(5H)-yl)methoxy)-15,18-dioxa-5,6,21,23,25,29 hexaazahexacyclo[24.3.1.1˜17,21˜.0˜2,10˜.0˜3,7˜.0˜22,27˜]hentriaconta-1(30),2,4,7,9,22,24,26,28-nonaene] | 
9 | 7.89 | 8.70 | 6.30 | O=C1COCCc2c(Cl)cc3[nH]ncc3c2-c2ncc3c(nc(OC[C@@]45CCCN4C[C@H](F)C5)nc3c2F)N2CCCC[C@H](C2)N1 [Example 271, (26R)-18-chloro-32-fluoro-4-(((2R,7aS)-2-fluorotetrahydro-1H-pyrrolo[1,2-a]pyrrol-7a(5H)-yl)methoxy)-22-oxa-1,3,5,9,14,15,25-heptaazahexacyclo[24.4.1.1~6,10~.0~2,7~.0~11,19~.0~12,16~]dotriaconta-2,4,6,8,10(32),11,13,16,18-nonaen-24-one] | 
10 | 7.66 | 7.74 | 6.30 | Cc1cc2[nH]ncc2c2c1C[C@@H](C)COC(=O)O[C@@H]1CCCN(C1)c1nc(OC[C@@]34CCCN3C[C@H](F)C4)nc3c(F)c-2ncc13 (single isomer, unassigned) [Example 214] | 
11 | 7.70 | 8.05 | 7.26 | Fc1c2ncc3c(nc(OC[C@@]45CCCN4C[C@H](F)C5)nc13)N1CCOC(C1)c1cnn(n1)CCCc1c(Cl)cc3[nH]ncc3c1-2 (stereo partly drawn) [Example 294, 9-chloro-31-fluoro-25-(((2R,7aS)-2-fluorotetrahydro-1H-pyrrolo[1,2-a]pyrrol-7a(5H)-yl)methoxy)-19-oxa-5,6,14,15,22,24,26,30,33-nonaazaheptacyclo[25.3.1.1~14,17~.1~18,22~.0~2,10~.0~3,7~.0~23,28~]tritriaconta-1(31),2,4,7,9,15,17(33),23,25,27,29-undecaene] | 
12 | 8.30 | 8.52 | 7.27 | O=C1N[C@@H]2CN(C[C@@H]3C[C@@H]32)c2nc(OC[C@@]34CCCN3C[C@H](F)C4)nc3c(F)c(ncc23)-c2c(c(Cl)cc3[nH]ncc23)CCC[C@@H]1F [Example 174, (23S,26S,27S,29R)-18-chloro-23,32-difluoro-4-(((2R,7aS)-2-fluorotetrahydro-1H-pyrrolo[1,2-a]pyrrol-7a(5H)-yl)methoxy)-1,3,5,9,14,15,25-heptaazaheptacyclo[24.4.1.1~6,10~.0~2,7~.0~11,19~.0~12,16~.0~27,29~]dotriaconta-2,4,6,8,10(32), 11,13,16,18-nonaen-24-one] | 
13 | 7.77 | 8.10 | 6.77 | C[C@@H](Oc1nc2c3cnc(c(F)c3n1)-c1c(c(Cl)cc3[nH]ncc13)CCCOC(=O)O[C@@H]1COCCN2C1)[C@@H]1CCCN1C [Example 203, (26S)-18-chloro-32-fluoro-4-((1R)-1-((2S)-1-methyl-2-pyrrolidinyl)ethoxy)-23,25,28-trioxa-1,3,5,9,14,15-hexaazahexacyclo[24.4.1.1~6,10~.0~2,7~.0~11,19~.0~12,16~]dotriaconta-2,4,6,8,10(32),11,13,16,18-nonaen-24-one] | 
14 | 7.82 | 7.96 | 6.73 | Cc1cc2[nH]ncc2c2c1CC(C)COC(=O)O[C@@H]1CCCN(C1)c1nc(OC[C@@]34CCCN3C[C@H](F)C4)nc3c(F)c-2ncc13 (stereo partly drawn) [Example 111] | 
15 | 7.59 | 8.30 | 5.91 | O=C1N[C@@H]2CCCCN(C2)c2nc(OC[C@@]34CCCN3C[C@H](F)C4)nc3c(F)c(ncc23)-c2c(c(Cl)cc3[nH]ncc23)CCCCO1 [Example 291, (27R)-18-chloro-33-fluoro-4-(((2R,7aS)-2-fluorotetrahydro-1H-pyrrolo[1,2-a]pyrrol-7a(5H)-yl)methoxy)-24-oxa-1,3,5,9,14,15,26-heptaazahexacyclo[25.4.1.1~6,10~.0~2,7~.0~11,19~.0~12,16~]tritriaconta-2,4,6(33),7,9,11,13,16,18-nonaen-25-one] | 
16 | 7.42 | 7.62 | 6.43 | Fc1c2ncc3c(nc(OC[C@@]45CCCN4C[C@H](F)C5)nc13)N1CCOC[C@]3(C1)C[C@H](C3)OCCCCc1c(Cl)cc3[nH]ncc3c1-2 [Example 264, (1R,3R)-10-chloro-33-fluoro-24-(((2R,7aS)-2-fluorotetrahydro-1H-pyrrolo[1,2-a]pyrrol-7a(5H)-yl)methoxy)-4,30-dioxa-13,14,19,23,25,27-hexaazaheptacyclo[25.4.1.1~1,3~.1~18,22~.0~9,17~.0~12,16~.0~21,26~]tetratriaconta-9,11,14,16,18(33),19,21,23,25-nonaene] | 

Row | SMILES | pIC50 [1] | pIC50 [2] | pIC50 [3] | IC50 [2] [µM]
17 | CN1CCC(Oc2nc3c4cnc(c(F)c4n2)-c2c(c(Cl)cc4[nH]ncc24)CCCOC(=O)O[C@@H]2COCCN3C2)CC1.O=C(O)C(F)(F)F [Example 370, (26S)-18-Chloro-32-fluoro-4-((1-methyl-4-piperidinyl)oxy)-23,25,28-trioxa-1,3,5,9,14,15-hexaazahexacyclo[24.4.1.1˜6,10˜.0˜2,7˜.0˜11,19˜.0˜12,16˜]dotriaconta-2,4,6,8,10(32),11,13,16,18-nonaen-24-one trifluoroacetate] | 7.44 |  | 6.15 | 0.018
